According to US9932300B2, “N,N′-diarylurea compounds and N,N′-diarylthiourea compounds as inhibitors of translation initiation” (President and Fellows of Harvard College, priority 2009, dated 2018):

System: eIF2-GTP-Met-tRNAi ternary complex
Assay: Ternary complex assay (dual luciferase, firefly/renilla ratio) in stable KLN-tTA/pBISA-DL(ATF-4) cells; HTS and hit confirmation
Type: cell-based, mouse
Parameters: Activity 10 uM / Activity 2.5 uM / Activity 5 uM: unit not given here
Conditions: confirmed hits of the screen (Table 5); for Activity 2.5 uM: compound at 2.5 uM; for Activity 10 uM: compound at 10 uM; for Activity 5 uM: compound at 5 uM

COc1ccc(CCN2C(=O)C(=O)N(c3ccc(Cl)c(Cl)c3)C2=O)cc1OC [Compound 323938]
Activity 2.5 uM: 0.99 | Activity 10 uM: 5.53

Nc1ccccc1-c1nnc(-c2ccccc2)o1 [Compound 377831]
Activity 2.5 uM: 2.19 | Activity 10 uM: 3.79

Oc1ccc(N=Nc2ccc(Cl)cc2)cc1 [Compound 402592]
Activity 2.5 uM: 2.25 | Activity 10 uM: 3.48

FC(F)(Sc1ccccc1)c1nc2ccccc2o1 [Compound 691255]
Activity 5 uM: 3.963 | Activity 10 uM: 5.5705

O=C(Nc1ccc2ccccc2c1)c1ccc(Cl)cc1Cl [Compound 158959]
Activity 2.5 uM: 3.2 | Activity 10 uM: 4.01

O=Nc1c2cc3ccccc3[nH]c-2c2ccccc12 [Compound 81523]
Activity 5 uM: 7.526 | Activity 10 uM: 8.879

Nc1c(Br)cc2c([nH]c(=O)c3cc(Cl)ccc32)c1Br [Compound 134404]
Activity 2.5 uM: 5.44 | Activity 10 uM: 12.72

COc1cccc2c1n([O-])c1cccc(=O)c-1[n+]2[O-].COc1cccc2c1n([O-])c1cccc(=O)c-1[n+]2[O-].[Cu+2] [Compound 136768]
Activity 5 uM: 4.668 | Activity 10 uM: 3.271

C=CC(=O)N1C/C(=C\c2ccc(Cl)cc2)C(=O)/C(=C/c2ccc(Cl)cc2)C1 [Compound 687849]
Activity 2.5 uM: 0.88 | Activity 10 uM: 12.02

CC(/C=N/O)=N\O.CC(/C=N/O)=N\O.[Pd] [Compound 186948]
Activity 5 uM: 4.507 | Activity 10 uM: 4.4425

COc1ccc(NNc2ccc(OC)cc2)cc1 [Compound 86489]
Activity 2.5 uM: 2.73 | Activity 10 uM: 3.17

CCOC(=O)[C]1([Hg][CH3])N=NC(C(=O)OC)=C1C(=O)OC (stereo not drawn) [Compound 278352]
Activity 2.5 uM: 3.81

C/C(=N/NC(=S)NC(C)(C)C)c1ccccn1 [Compound 670788]
Activity 2.5 uM: 6.58 | Activity 10 uM: 4.08

N#CC(C#N)=C/C=C/C=C/c1c(Cl)cccc1Cl [Compound 170444]
Activity 2.5 uM: 0.66 | Activity 10 uM: 12.56

O=C(C=Cc1ccc([N+](=O)[O-])o1)C=Cc1ccc([N+](=O)[O-])o1 [Compound 21620]
Activity 2.5 uM: 0.74 | Activity 10 uM: 16.28

Cc1ccc(S(=O)(=O)n2c3c(c4ccccc42)CCN2C(=O)C(S(=O)(=O)c4ccccc4)=CCC32)cc1 (stereo not drawn) [Compound 665910]
Activity 2.5 uM: 0.72 | Activity 10 uM: 4.69

CCOC(=O)N(C(=O)c1ccc([As]=O)cc1)C(=O)c1ccc([As]=O)cc1 (stereo not drawn) [Compound 12750]
Activity 2.5 uM: 1.79 | Activity 10 uM: 4.9

O=C(Nc1cccc(Cl)c1)Nc1cc(C(F)(F)F)ccc1Cl [Compound 104498]
Activity 5 uM: 6.367 | Activity 10 uM: 8.4845

C=C1C(=O)OC2CCCCC3OC3C12 (stereo not drawn) [Compound 258618]
Activity 2.5 uM: 0.85 | Activity 10 uM: 3.2

CCOC(=C\C=C\C1=[N+](C)c2ccccc2C1(C)C)/C=C/C=C1/N(C)c2ccccc2C1(C)C.F[B-](F)(F)F [Compound 295477]
Activity 2.5 uM: 6.24 | Activity 10 uM: 9.07

CCCCCCCCCCCCCCCC[N+](C)(C)CCCCCC(=O)OC.[Br-] [Compound 26847]
Activity 2.5 uM: 1.83 | Activity 10 uM: 8.15

O=C(Nc1cccc(Cl)c1)Nc1cccc(Cl)c1 [Compound 69625]
Activity 5 uM: 6.201 | Activity 10 uM: 4.8565

COc1ccc(N=C(C)C2C(=O)c3ccccc3C2=O)cc1 [Compound 343385]
Activity 5 uM: 11.2 | Activity 10 uM: 8.3265

CN(C)c1ccc(C=Cc2ccnc3ccccc23)cc1.Cl [Compound 63346]
Activity 5 uM: 6.234 | Activity 10 uM: 6.8235

Cc1cc2c(C(C)C)c(O)c(O)c(C=Nc3ccc([N+](=O)[O-])cc3)c2c(O)c1-c1c(C)cc2c(C(C)C)c(O)c(O)c(C=Nc3ccc([N+](=O)[O-])cc3)c2c1O [Compound 408712]
Activity 2.5 uM: 1.57 | Activity 10 uM: 21.65

C[Si](C)(C)c1ccc(CC2(Cc3ccc([Si](C)(C)C)cc3)CCNC2)cc1 [Compound 634157]
Activity 2.5 uM: 0.8 | Activity 10 uM: 3.99

O=C(/C=C/c1ccc(Cl)cc1)CC(Cl)c1ccc(Cl)cc1 (stereo not drawn) [Compound 54905]
Activity 5 uM: 11.56 | Activity 10 uM: 16.011

COc1ccccc1NC(=S)N/N=C\c1cc(N=Nc2ccccc2)cc(OC)c1O [Compound 621792]
Activity 2.5 uM: 1.27 | Activity 10 uM: 3.75

COc1ccccc1C(=O)N/N=C\c1ccc(Cl)cc1Cl [Compound 204386]
Activity 5 uM: 5.252 | Activity 10 uM: 6.0225

COc1cccc2c1C(=O)c1c(O)c3c(c(O)c1C2=O)C[C@@](O)(C(=O)COC(C)=O)C[C@@H]3OC1CC(N)C(O)C(C)O1.Cl (stereo partly drawn) [Compound 149581]
Activity 5 uM: 3.5 | Activity 10 uM: 4.3

CCC[CH2][Sn]([CH2]CCC)([CH2]CCC)[O]c1cccccc1=O [Compound 644907]
Activity 2.5 uM: 4.97

ClCCN(CCCl)c1ccc(C2N(Cc3ccccc3)c3ccccc3N2Cc2ccccc2)cc1 [Compound 96306]
Activity 5 uM: 2.2 | Activity 10 uM: 5.7

CC(=O)OC1CCC2(C)C3CCC4(C)C(CCC4(Br)C(=O)CBr)C3CC(Br)C2(Br)C1 (stereo not drawn) [Compound 45884]
Activity 2.5 uM: 0.47 | Activity 10 uM: 16.23

Cc1ccc(C23C=CC(c4ccccc4)(C2)C2C(=O)OC(=O)C23)cc1 (stereo not drawn) [Compound 406824]
Activity 2.5 uM: 1.76 | Activity 10 uM: 4.25

COc1ccc2nc3cc(Cl)ccc3c(NCCC3CCCN4CCCCC34)c2c1 (stereo not drawn) [Compound 359827]
Activity 2.5 uM: 0.61 | Activity 10 uM: 6.27

O=C1c2ccccc2C(=O)c2c1ccc1c2[nH]c2ccccc21 [Compound 92938]
Activity 2.5 uM: 3.41 | Activity 10 uM: 4.68

CCN1CCNc2c3cc(OC)ccc3nc3c([N+](=O)[O-])ccc1c23 [Compound 658354]
Activity 2.5 uM: 0.2379 | Activity 10 uM: 6.609

Cc1cc(N(CCCl)CCCl)ccc1N=Nc1ccccc1C(=O)[O-].Cc1cc(N(CCCl)CCCl)ccc1N=Nc1ccccc1C(=O)[O-].[Cu+2] [Compound 68292]
Activity 5 uM: 7.2 | Activity 10 uM: 18.3

CCCCCc1[nH]nc(C(=O)OC)c1N=NN1CCOCC1 [Compound 131237]
Activity 2.5 uM: 0.87 | Activity 10 uM: 3.3

COc1cc(N=Nc2ccccc2)cc(/C=N/NC(=S)Nc2ccccc2)c1[O-].COc1cc(N=Nc2ccccc2)cc(/C=N/NC(=S)Nc2ccccc2)c1[O-].[Cu+2] [Compound 621794]
Activity 2.5 uM: 9.24 | Activity 10 uM: 6.6

c1cc[c]([Hg][O]c2cccc3cccnc23)cc1 [Compound 66326]
Activity 10 uM: 5.2

c1ccc(-c2noc(-c3ccccc3)n2)cc1 [Compound 400077]
Activity 2.5 uM: 2.04 | Activity 10 uM: 3.14

CN(C)c1ccc(N=Nc2cccc(C(=O)[O-])c2)cc1.CN(C)c1ccc(N=Nc2cccc(C(=O)[O-])c2)cc1.NC1CCCCC1N.O=[N+]([O-])O.[Pt+4] [Compound 608144]
Activity 2.5 uM: 3.82 | Activity 10 uM: 112.47

CCC[CH2][Sn]([CH2]CCC)([CH2]CCC)[CH2]C(C)(C)c1ccccc1 [Compound 126650]
Activity 2.5 uM: 0.64 | Activity 10 uM: 8.04

c1ccc(N=Nc2n[nH]c3ccccc23)cc1 [Compound 170633]
Activity 2.5 uM: 5.12 | Activity 10 uM: 8.99

CSC1=CC(=O)C=C(C)C1=O [Compound 119026]
Activity 5 uM: 4 | Activity 10 uM: 12.6

Nc1ccc(O)c(-c2ccccc2)c1 [Compound 409777]
Activity 2.5 uM: 20.85 | Activity 10 uM: 5.55

Cc1cc2c(cc1C)[n+]([O-])c(-c1nc3ccccc3s1)c(N)[n+]2[O-] [Compound 621504]
Activity 2.5 uM: 14.68

O=C(NCC(=O)N1CCCC1)N/N=C/c1ccccc1O [Compound 343979]
Activity 5 uM: 2.571 | Activity 10 uM: 3.1255

Br.C/C(=C\c1ccccc1)C(=O)C(CN(C)C)CN(C)C [Compound 367620]
Activity 2.5 uM: 0.49 | Activity 10 uM: 16.04

O=C(Nc1cccc(Cl)c1)NC1CCC(CC2CCCCC2)CC1.O=C(Nc1cccc(Cl)c1)NC1CCC(CC2CCCCC2)CC1 (stereo not drawn) [Compound 172879]
Activity 2.5 uM: 1.11 | Activity 10 uM: 3.6

Oc1cccc(C2=NNC(c3cccc(O)c3)=NN2)c1 [Compound 171129]
Activity 2.5 uM: 5.1 | Activity 10 uM: 7.98

Cc1cc(N=Nc2ccccc2C)c(N)cc1N [Compound 400939]
Activity 2.5 uM: 2.36 | Activity 10 uM: 3.56

O=C(Nc1nc2ccsc2s1)c1ccccc1 [Compound 354215]
Activity 2.5 uM: 3.08 | Activity 10 uM: 4.14

CN(C)c1ccc(N=Nc2cccc([N+](=O)[O-])c2)cc1 [Compound 204512]
Activity 2.5 uM: 2.67 | Activity 10 uM: 4.16

COc1ccc(C2=NN(C(C)=O)c3nc4ccccc4nc3O2)cc1 [Compound 643713]
Activity 2.5 uM: 2.72 | Activity 10 uM: 4.87

Cn1c2ccccc2c2c(-c3ccccc3)cc3c(c21)C(=O)C=CC3=O [Compound 661225]
Activity 2.5 uM: 1.76 | Activity 10 uM: 25.16

CC(=O)[O][Sn]([c]1ccccc1)([c]1ccccc1)[c]1ccccc1 [Compound 76068]
Activity 2.5 uM: 1.02 | Activity 10 uM: 3.68

CCCCCCCCCCCC[n+]1ccc(C)cc1C.Cc1ccc(S(=O)(=O)[O-])cc1 [Compound 78949]
Activity 5 uM: 4.1 | Activity 10 uM: 7.7

Br.CN1CCC2(C)CC(Br)(Cc3ccccc32)C1Cl (stereo not drawn) [Compound 349125]
Activity 2.5 uM: 0.47 | Activity 10 uM: 13.75

c1cc[c]([Ge]([O][Ge]([c]2ccccc2)[c]2ccccc2)[c]2ccccc2)cc1.c1cc[c]([Ge]([O][Ge]([c]2ccccc2)[c]2ccccc2)[c]2ccccc2)cc1 [Compound 361597]
Activity 2.5 uM: 0.32 | Activity 10 uM: 17.56

Cn1cc(/C=C/C(=O)c2ccccc2[N+](=O)[O-])c2ccccc21 [Compound 609810]
Activity 2.5 uM: 2.44 | Activity 10 uM: 4.69
